{"source": "patent US8907076B2", "about": "“Mycobacterial peptide deformylase” (Council of Scientific and Industrial Research, priority 2006, dated 2014)", "key": {"E. coli": {"tested_on": "E. coli", "experiment": "Growth of E. coli culture with antisense PS-ODN (colony forming units)", "assay_type": "cell-based, Escherichia coli", "settings": "10 μM PS-ODN, Lauria-Bertani medium; colony forming units vs untreated", "protocol": "Further, to ensure that PS-ODN1 permeabilized within the M. smegmatis cells, PS-ODN1 were conjugated with 3′Flourescein label and used for the treatment of mycobacterial culture (˜1×10^5 cells of M. smegmatis were incubated with 10 μM PS-ODNs in 3 ml 7H9 Middlebrook broth supplemented with 10% ADC and grown at 37° C./200 rpm for 24 hrs). […] Since PS-ODN1 was mycobacteria specific, in E. coli where this insertion sequence is absent, when culture was treated with 10 μM PS-ODN1 had no effect on its growth. (FIG. 7, right panel)."}, "endogenous PDF protein": {"tested_on": "endogenous PDF protein", "assay_type": "cell-based, Mycobacterium smegmatis"}, "[1]": {"tested_on": "Mycobacterium smegmatis strain mc^2155", "experiment": "Growth profile of M. smegmatis culture with antisense PS-ODNs (OD600 and colony forming units)", "settings": "10 μM PS-ODN, 24 h, 7H9 Middlebrook broth"}}}
{"substance": "PS-ODN1: 5′ phosphothiorate modified antisense oligodeoxyribonucleotide spanning bases 219-249 of M. tuberculosis def (insertion region); probably SEQ ID NO: 14 (antisense CGGATTGATGACCACACCGCGTCGGCGGGCGGTCAT; DNA, backbone and methylation of C not given here; phosphorothioate modified at 5'; listed as Mycobacterium tuberculosis)", "values": [{"measurement": "effect on growth profile of E. coli", "setting": "E. coli", "result": "no effect"}, {"measurement": "level of expression of endogenous PDF protein compared to untreated control", "setting": "endogenous PDF protein", "result": "significant reduction"}, {"measurement": "decrease in growth of M. smegmatis compared to the untreated culture", "setting": "[1]", "result": "five-fold decrease"}]}
